Experimental data published in ChEMBL document CHEMBL1127959, “Thia-prostanoid analogs with combined thromboxane receptor antagonist/thromboxane synthase inhibitor activities. Synthesis and pharmacological evaluation” (Bioorg Med Chem Lett, 1994).

Experiments:
Thromboxane-A synthase = molecular target: T1, Thromboxane-A synthase (Homo sapiens, UniProt P24557); test: In vitro inhibition of thromboxane synthase
T1 sequence (P24557 whole entry): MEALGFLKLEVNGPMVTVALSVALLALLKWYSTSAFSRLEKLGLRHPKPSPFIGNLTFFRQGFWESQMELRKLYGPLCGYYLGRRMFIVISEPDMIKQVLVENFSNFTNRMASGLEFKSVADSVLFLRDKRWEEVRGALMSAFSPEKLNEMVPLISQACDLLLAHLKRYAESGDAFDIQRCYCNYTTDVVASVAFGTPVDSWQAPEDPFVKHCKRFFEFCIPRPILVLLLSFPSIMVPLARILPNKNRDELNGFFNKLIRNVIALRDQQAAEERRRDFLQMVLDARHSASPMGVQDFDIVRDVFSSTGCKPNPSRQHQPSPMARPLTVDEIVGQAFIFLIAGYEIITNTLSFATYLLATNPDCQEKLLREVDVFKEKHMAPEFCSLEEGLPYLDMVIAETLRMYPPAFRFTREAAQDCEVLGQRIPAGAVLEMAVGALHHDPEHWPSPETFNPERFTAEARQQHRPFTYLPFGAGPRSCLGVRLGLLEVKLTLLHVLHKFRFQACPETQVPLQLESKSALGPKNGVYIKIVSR

Thromboxane A2 receptor = molecular target: T2, Thromboxane A2 receptor (Homo sapiens, UniProt P21731); test: In vitro thromboxane receptor antagonist activity was determined by inhibition of U-46619 induced aggregation of washed human platelets; assay type: functional
T2 sequence (P21731 whole entry): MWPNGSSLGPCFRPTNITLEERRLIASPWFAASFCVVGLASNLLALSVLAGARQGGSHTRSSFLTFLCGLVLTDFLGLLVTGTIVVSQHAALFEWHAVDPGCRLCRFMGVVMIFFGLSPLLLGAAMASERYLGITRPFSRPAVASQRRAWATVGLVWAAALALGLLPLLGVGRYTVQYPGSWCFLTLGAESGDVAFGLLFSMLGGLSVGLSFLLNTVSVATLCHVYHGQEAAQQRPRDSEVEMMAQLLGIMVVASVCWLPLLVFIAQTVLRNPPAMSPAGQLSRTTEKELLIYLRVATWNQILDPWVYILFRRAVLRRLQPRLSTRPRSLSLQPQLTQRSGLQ

Structure (SMILES) | IC50 (Thromboxane-A synthase) | IC50 (Thromboxane A2 receptor)
O=C(O)CC/C=C\CC[C@@H]1[C@@H](c2cccnc2)[S@@+]([O-])C[C@H]1OCc1ccc(-c2ccccc2)cc1 | > 200 nM | 
O=C(O)CC/C=C\CC[C@@H]1[C@@H](c2cccnc2)S(=O)(=O)C[C@H]1OCc1ccc(-c2ccccc2)cc1 | > 200 nM | 
O=C(O)CCCCCc1cccc2cncn12 [PIRMAGREL] | 3 nM | Not Active
O=C(O)CC/C=C\CC[C@@H]1[C@@H](c2cccnc2)[S@+]([O-])C[C@H]1OCc1ccc(-c2ccccc2)cc1 | > 200 nM | 
O=C(O)CC/C=C\CC[C@H]1[C@@H](OCc2ccc(-c3ccccc3)cc2)C[S+]([O-])[C@@H]1c1cccnc1 (some centres not stated) | > 100 nM | 

Further lines, results first:

IC50 (Thromboxane-A synthase) | IC50 (Thromboxane A2 receptor) | Structure (SMILES)
43 nM |  | O=C(O)CCC/C=C\C[C@@H]1[C@@H](c2cccnc2)SC[C@H]1OCc1ccc(-c2ccccc2)cc1
18 nM |  | O=C(O)CC/C=C\CC[C@@H]1[C@@H](c2cccnc2)SC[C@H]1OCc1ccc(-c2ccccc2)cc1 (stereo in doubt; (+))
11 nM |  | O=C(O)CC/C=C\CC[C@H]1[C@@H](OCc2ccc(-c3ccccc3)cc2)CS[C@@H]1c1cccnc1
10 nM |  | O=C(O)CC/C=C\CC[C@@H]1[C@@H](c2cccnc2)SC[C@H]1OCc1ccc(-c2ccccc2)cc1 (stereo in doubt; 1)
13 nM |  | O=C(O)CC/C=C\CC[C@@H]1[C@@H](c2cccnc2)SC[C@H]1OCc1ccc(-c2ccccc2)cc1 (stereo in doubt; (-))
> 200 nM |  | O=C(O)CC/C=C\CC[C@H]1[C@@H](OCc2ccc(-c3ccccc3)cc2)CS(=O)(=O)[C@@H]1c1cccnc1
